According to patent US12415785B2, “Compound modulators of sting” (CTXT PTY LTD, priority 2019, dated 2025):
Like-named read-outs stand apart in the source and are kept apart here.

What was measured:
human STING (HAQ) [1] = biological target: human STING (HAQ) (Homo sapiens, UniProt Q86WV6, G230A/H232R/R293Q); assay: Differential scanning fluorimetry (DSF), huSTING (HAQ); format: binding; conditions: read-out: DSF huSTING (HAQ) ΔTm (° C.)
Description: (§1) Biophysical experiments were performed with three different recombinant human STING protein variants designated according to allelic nomenclature of Yi et al., (2013). […] These were ligated into a modified pET43a E. coli expression vector designed to encode N-terminal His tag followed by tobacco etch virus protease (TEV) cleavage site and a STING gene sequence. The resulting protein sequences for the three allelic variants are listed below: […] Cultures were then cooled to 16° C. and protein expression induced by the addition of isopropyl β-D-1-thiogalactopyranoside to a final concentration of 0.5 mM and the cultures shaken overnight for further 16 hours. Following expression, cell cultures were centrifuged at 5000×g for 20 min and cell pellet stored frozen at −70° C. Protein purification was initiated by thawing the cell pellet in Lysis buffer (25 mM Tris-HCl pH 8.0, 300 mM NaCl, 5 mM DTT, 2 mM MgCl2, 10 mM imidazole, 0.5 mg/ml lysozyme, benzonase endonuclease [EMD Millipore], 1 mM PMSF, complete protease inhibitor tablets EDTA-free [Roche]) using a ratio of 7 ml of buffer per 1 g of cells. Cells were further lysed by 3 passes through an ice cooled Avestin C5 cell crusher and then centrifuged at 48,000×g at 4° C. […] The IMAC column was then sequentially washed with IMAC Wash buffer 1 and IMAC Wash buffer 2 (25 mM Tris-HCl pH 8.0, 300 mM NaCl, 5 mM DTT, 20 mM Imidazole) and bound His-TEV-hSTING protein eluted with IMAC Elution buffer (25 mM Tris-HCl pH 8.0, 300 mM NaCl, 5 mM DTT, 250 mM Imidazole). […] Differential scanning fluorimetry (DSF) is a rapid screening method for identifying low-molecular-weight ligands that bind and, in doing so, stabilize (or sometimes destabilize) purified proteins (Niesen 2007). DSF monitors thermal unfolding of protein in the presence of a fluorescent dye and is typically performed using a real-time PCR instrument. The temperature at which a protein unfolds is measured by an increase in the fluorescence of a dye with affinity for hydrophobic parts of the protein that are gradually being exposed during unfolding. The fluorescence of the dye is quenched in aqueous environments, but when the dye associates with hydrophobic sites on unfolded protein, its fluorescence increases. The fluorescence intensity is plotted as a function of the temperature, generating a sigmoidal curve that can be described by a two-state transition. The inflection point of the transition curve (Tm) is calculated using simple equations such as that of Boltzmann. Thermal stability of STING protein (with and without bound ligand) was measured using previously described methodology (Seabrook & Newman, 2013), with samples tested in triplicate using 96-well PCR microplate (AB Gene, ABGAB-0600/W). […] Sealed plates were placed into Bio-Rad CFX96/C1000 thermocycler and FRET scanning mode (λ^excitation of 490 nm and reads at a λ^emission of 570 nm). Melting curves were recorded from 20° C. to 100° C. in 0.5° C. increments every 30 seconds with a read at each increment. Data were analysed using “Meltdown analysis” protocol described by Rosa (2015).

[2] = biological target: WT human STING isoform (THP-1-Dual KI-hSTING-R232 cells) (Homo sapiens (Human), UniProt Q86WV6, H232R); assay: THP-1-Dual KI-hSTING-R232 reporter cell line assay; format: cell-based; conditions: 24 h incubation, QUANTI-Luc luminescence
WT human STING isoform (THP-1-Dual KI-hSTING-R232 cells), sequence (Q86WV6 whole entry H232R, canonical isoform): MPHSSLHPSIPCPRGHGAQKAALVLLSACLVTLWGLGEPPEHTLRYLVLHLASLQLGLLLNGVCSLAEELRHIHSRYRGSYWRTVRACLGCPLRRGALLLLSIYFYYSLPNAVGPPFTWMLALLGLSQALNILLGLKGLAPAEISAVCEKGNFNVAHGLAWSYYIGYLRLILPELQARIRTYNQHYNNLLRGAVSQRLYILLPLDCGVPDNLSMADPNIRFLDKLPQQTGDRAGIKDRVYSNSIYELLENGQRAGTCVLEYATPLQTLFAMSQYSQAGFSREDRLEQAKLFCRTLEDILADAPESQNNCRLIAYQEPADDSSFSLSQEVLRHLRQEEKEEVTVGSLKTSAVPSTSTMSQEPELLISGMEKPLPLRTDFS
Description: (§2) THP-1 STING Lucia ISG cells (InvivoGen #thpI-isg) were cultured in RPMI-1640 containing 2 mM L-glutamine, 25 mM HEPES, 100 μg/mL Normocin (InvivoGen) and 10% heat-inactivated FBS. Cells were seeded at a density of 7×10^5 cells/mL, maintained at 37° C./5% CO2, and passaged every 3-4 days. Selection pressure was maintained by the addition of 100 μg/mL Zeocin every second passage.
(§3) Assay conditions: cells were harvested and resuspended at a concentration of 5×10^5 cells/mL in fresh growth media. Of this cell preparation 20 μL per well was dispensed into 384 well cell culture plates (Greiner, #781098X) and incubated at 37° C./5% CO2 for 2 hours. Concentration Response Curves (commonly 11 doses) were prepared by 2.5 fold serial dilution starting from 10 mM compound stock solution in DMSO. Compound dilutions were transferred into the cell culture plates using a pintool (0.1 μL transfer), control wells were matched for DMSO. Positive control wells received ML RR—S2 CDA (Med Chem Express HY12885B) in 5 μL of media to a final concentration of 40 μM. All other wells received additional 5 μL of media only to equalise volume. The plates were incubated for 24 h at 37° C./5% CO2.
(§4) For the detection step, QUANTI-Luc (InvivoGen #rep-qlc1) was prepared according to manufacturer's instruction and 10 μL were added per well to the culture plates. Plates were shaken for ten seconds on an orbital shaker and left in the dark at room temperature for two minutes, before luminescence was read on a Perkin Elmer Envision plate reader.
(§5) Data analysis: Luminescence raw data was normalised % activity relative to the signal of the positive control wells and negative control wells which were not treated with compound. The following formula was used to calculate normalised % activity from raw signals: % activity=(sample−negative)/(positive−negative)
(§6) The THP-1 STING Lucia ISG cell EC50 provides an assessment of activity at the human HAQ isoform of STING. For assessing compound activity against the WT human STING isoform, an equivalent method was conducted where the cells used were THP-1-Dual KI-hSTING-R232 (InvivoGen #thpd-r232).

human STING (WT) = human STING (WT) (Homo sapiens (Human), UniProt Q86WV6, H232R); assay: Differential scanning fluorimetry (DSF), huSTING (WT); format: binding; conditions: for ΔTm at 100 µM: read-out: DSF huSTING (WT) ΔTm (° C.)
human STING (WT), sequence (Q86WV6 other isoform, or with tags, fused parts or gaps, stated change not applied): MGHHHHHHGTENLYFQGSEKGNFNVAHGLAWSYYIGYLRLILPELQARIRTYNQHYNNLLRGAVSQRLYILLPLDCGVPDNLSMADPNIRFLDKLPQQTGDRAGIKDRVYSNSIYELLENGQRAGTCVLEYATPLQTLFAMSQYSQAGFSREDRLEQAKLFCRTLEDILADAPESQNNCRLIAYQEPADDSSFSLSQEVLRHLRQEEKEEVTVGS
Description: as §1

[3] = biological target: human HAQ isoform of STING (THP-1 STING Lucia ISG cells) (Homo sapiens (Human), UniProt Q86WV6, G230A/H232R/R293Q/R71H); assay: THP-1 STING Lucia ISG reporter cell line assay; format: cell-based; conditions: 24 h incubation, QUANTI-Luc luminescence
human HAQ isoform of STING (THP-1 STING Lucia ISG cells), sequence (Q86WV6 whole entry R71H/G230A/H232R/R293Q, canonical isoform): as the sequence (Q86WV6 whole entry H232R, canonical isoform) above, with R71H, G230A, R293Q counted along it
Description: as §2, §3, §4, §5, §6

human STING (HAQ) [4] = assay: Differential scanning fluorimetry (DSF), huSTING (HAQ); format: binding; conditions: 2 μM protein, compound 100 μM; Tm with ligand minus Tm of protein alone (1% DMSO)
Description: as §1

[5] = 2 μM protein, compound 100 μM, Tm with ligand minus Tm of protein alone (1% DMSO)

human STING (HAQ) (Homo sapiens, UniProt Q86WV6, G230A/H232R/R293Q), sequence (Q86WV6 whole entry G230A/H232R/R293Q, looked up): as the sequence (Q86WV6 whole entry H232R, canonical isoform) above, with G230A, R293Q counted along it

SMILES | ΔTm at 100 µM (human STING (HAQ) [1]; [5]) | EC50 [2] | ΔTm at 100 µM (human STING (WT); [5]) | EC50 [3] | DSF huSTING (HAQ) ΔTm (° C.) (human STING (HAQ) [4]) | DSF huSTING (WT) ΔTm (° C.) (human STING (WT); [5]) | ΔTm at 100 µM (human STING (HAQ) [1]) | ΔTm at 100 µM (human STING (WT))
NC(=O)c1ccc2c(c1)nc(-c1ccc(Cl)cc1C(=O)O)n2CCn1c(-c2ccc(Cl)cc2C(=O)O)nc2cc(C(N)=O)ccc21 [Example 39, 6,6′-(Ethane-1,2-diylbis(5-carbamoyl-1H-benzo[d]imidazole-1,2-diyl))bis(3-chlorobenzoic acid)] | 0.86 °C | > 40 µM | -4.35 °C | > 40 µM |  |  |  | 
COc1c(C(N)=O)ccc2c1nc(-c1cc(Cl)ccc1C(=O)O)n2CCn1c(-c2cc(Cl)ccc2C(=O)O)nc2c(OC)c(C(N)=O)ccc21 [Example 7, 2,2′-(Ethane-1,2-diylbis(5-carbamoyl-4-methoxy-1H-benzo[d]imidazole-1,2-diyl))bis(4-chlorobenzoic acid)] | 5.88 °C | 1.43 µM | -2.49 °C | 1.55 µM |  |  |  | 
COc1c(C(N)=O)ccc2c1nc(-c1cc(Cl)c(Cl)cc1C(=O)O)n2CCn1c(-c2cc(Cl)c(Cl)cc2C(=O)O)nc2c(OC)c(C(N)=O)ccc21 [Example 8, 6,6′-(Ethane-1,2-diylbis(5-carbamoyl-4-methoxy-1H-benzo[d]imidazole-1,2-diyl))bis(3,4-dichlorobenzoic acid)] |  | 0.426 µM |  | 0.54 µM |  |  | 23.2 °C | 6.38 °C
COc1c(C(N)=O)ccc2c1nc(-c1cc(F)ccc1C(=O)O)n2CCn1c(-c2cc(F)ccc2C(=O)O)nc2c(OC)c(C(N)=O)ccc21 [Example 28, 2,2′-(Ethane-1,2-diylbis(5-carbamoyl-4-methoxy-1H-benzo[d]imidazole-1,2-diyl))bis(4-fluorobenzoic acid)] | -2.19 °C | > 40 µM | -6.6 °C | 12.6 µM |  |  |  | 
COc1c(C(N)=O)ccc2c1nc(-c1c(C(=O)O)ccc(Cl)c1F)n2CCn1c(-c2c(C(=O)O)ccc(Cl)c2F)nc2c(OC)c(C(N)=O)ccc21 [Example 12, 2,2′-(Ethane-1,2-diylbis(5-carbamoyl-4-methoxy-1H-benzo[d]imidazole-1,2-diyl))bis(4-chloro-3-fluorobenzoic acid)] | 28.3 °C | 2.55 µM | 4.56 °C | 2.65 µM |  |  |  | 
COc1c(C(N)=O)ccc2c1nc(-c1ccc(Cl)cc1-c1nn[nH]n1)n2CCn1c(-c2c(F)cc(Cl)cc2C(=O)O)nc2c(OC)c(C(N)=O)ccc21 [Example 47, 2-(5-Carbamoyl-1-(2-(5-carbamoyl-2-(4-chloro-2-(2H-tetrazol-5-yl)phenyl)-4-methoxy-1H-benzo[d]imidazol-1-yl)ethyl)-4-methoxy-1H-benzo[d]imidazol-2-yl)-5-chloro-3-fluorobenzoic acid] |  | 0.549 µM |  | 0.497 µM |  |  |  | 
NC(=O)c1ccc2c(c1)nc(-c1c(Br)cccc1C(=O)O)n2CCn1c(-c2c(Br)cccc2C(=O)O)nc2cc(C(N)=O)ccc21 (single isomer, unassigned) [Example 29.2, 2,2′-(Ethane-1,2-diylbis(5-carbamoyl-1H-benzo[d]imidazole-1,2-diyl))bis(3-bromobenzoic acid)] |  | > 40 µM |  | > 40 µM | −5.65 °C | −6.70 °C |  | 
COc1c(C(N)=O)ccc2c1nc(-c1c(I)cccc1C(=O)O)n2CCn1c(-c2c(I)cccc2C(=O)O)nc2c(OC)c(C(N)=O)ccc21 (single isomer, unassigned) [Example 19.2, 2,2′-(Ethane-1,2-diylbis(5-carbamoyl-4-methoxy-1H-benzo[d]imidazole-1,2-diyl))bis(3-iodobenzoic acid)] |  | 11.7 µM |  | 14.9 µM | 21.66 °C | 6.58 °C |  | 

Continued, in another order:

ΔTm at 100 µM (human STING (HAQ) [1]; [5]) | EC50 [2] | ΔTm at 100 µM (human STING (WT); [5]) | EC50 [3] | DSF huSTING (HAQ) ΔTm (° C.) (human STING (HAQ) [4]) | DSF huSTING (WT) ΔTm (° C.) (human STING (WT); [5]) | SMILES | ΔTm at 100 µM (human STING (HAQ) [1]) | ΔTm at 100 µM (human STING (WT))
9.15 °C | 1.99 µM | 4.74 °C | 1.31 µM |  |  | COc1c(C(N)=O)ccc2c1nc(-c1ccc(Br)cc1C(=O)O)n2CCn1c(-c2ccc(Br)cc2C(=O)O)nc2c(OC)c(C(N)=O)ccc21 [Example 14, 6,6′-(Ethane-1,2-diylbis(5-carbamoyl-4-methoxy-1H-benzo[d]imidazole-1,2-diyl))bis(3-bromobenzoic acid)] |  | 
 | > 40 µM |  | > 40 µM |  |  | COC(=O)c1cc(Br)ccc1-c1nc2c(OC)c(C(N)=O)ccc2n1CCn1c(-c2ccc(Br)cc2C(=O)OC)nc2c(OC)c(C(N)=O)ccc21 [Example 13, Dimethyl 6,6′-(ethane-1,2-diylbis(5-carbamoyl-4-methoxy-1H-benzo[d]imidazole-1,2-diyl))bis(3-bromobenzoate)] |  | 
6.17 °C | 10.5 µM | 2.62 °C | 11.3 µM |  |  | COc1c(C(N)=O)ccc2c1nc(-c1ccc(F)cc1C(=O)O)n2CCn1c(-c2ccc(F)cc2C(=O)O)nc2c(OC)c(C(N)=O)ccc21 [Example 27, 6,6′-(Ethane-1,2-diylbis(5-carbamoyl-4-methoxy-1H-benzo[d]imidazole-1,2-diyl))bis(3-fluorobenzoic acid)] |  | 
1.6 °C |  | -0.85 °C |  |  |  | COc1c(C(N)=O)ccc2c1nc(-c1ccc(C#N)cc1C(=O)O)n2CCn1c(-c2ccc(C#N)cc2C(=O)O)nc2c(OC)c(C(N)=O)ccc21 [Example 51, 2-(5-Carbamoyl-1-(2-(5-carbamoyl-2-(2-carboxy-4-cyanophenyl)-4-methoxy-1H-benzo[d]imidazol-1-yl)ethyl)-4-methoxy-1H-benzo[d]imidazol-2-yl)-5-cyanobenzoic acid] |  | 
